Source: PMC3185582 (Viruses, 2010)
Where two headings read alike, the source gives them in different places.

Experiments:
[1] = tested on: vaccinia virus; format: cell-based
[2] = tested on: cowpox virus; format: cell-based
[3] = tested on: variola virus clinical isolates; settings: cited from earlier work
[4] = monkey or human microsomes
[5] = tested on: Ectromelia; settings: mouse, in vivo, cited from earlier work
[6] = rat, mouse and dog microsomes
[7] = tested on: monkeypox virus; set-up: species or system cynomolgus macaques; settings: cynomolgus monkey, in vivo
[8] = in vivo; settings: BALB/c, mouse
[9] = tested on: vaccinia virus in BSC-40 cell monolayers; settings: 10 μM, 5 pfu/cell; ref Chen et al. [48]; cited from earlier work
[10] = tested on: p37 with Rab9 and TIP47; settings: cited from earlier work
[11] = tested on: Vaccinia; settings: mouse, in vivo, po, 100 mg/kg
[12] = mouse, in vivo
[13] = not given; remark: listed apart in the source
[14] = tested on: Vaccinia; settings: mouse, in vivo, cited from earlier work
[15] = in vivo; settings: dog
[16] = tested on: monkeypox virus clinical isolates; settings: cited from earlier work
[17] = tested on: variola virus; settings: cynomolgus monkey, in vivo, cited from earlier work
[18] = target: CYP1A2 (Homo sapiens, UniProt P05177); assay: in vitro
CYP1A2, sequence (P05177 whole entry): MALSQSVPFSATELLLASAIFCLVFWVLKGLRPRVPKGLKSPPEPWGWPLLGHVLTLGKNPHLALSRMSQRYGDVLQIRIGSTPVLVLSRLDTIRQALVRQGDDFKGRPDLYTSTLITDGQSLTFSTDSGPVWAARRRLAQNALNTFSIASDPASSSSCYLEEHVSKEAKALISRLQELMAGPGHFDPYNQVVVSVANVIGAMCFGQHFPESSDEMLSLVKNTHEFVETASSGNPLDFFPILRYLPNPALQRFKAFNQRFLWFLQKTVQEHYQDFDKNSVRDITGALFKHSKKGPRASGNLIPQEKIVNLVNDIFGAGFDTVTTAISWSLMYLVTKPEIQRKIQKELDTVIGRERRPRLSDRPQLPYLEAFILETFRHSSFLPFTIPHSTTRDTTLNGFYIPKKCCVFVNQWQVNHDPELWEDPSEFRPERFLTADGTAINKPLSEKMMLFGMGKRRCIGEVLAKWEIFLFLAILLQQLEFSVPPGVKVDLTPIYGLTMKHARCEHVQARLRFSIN

[19] = tested on: CYP 2B6
[20] = not given; remark: listed apart in the source
[21] = tested on: cytochrome P450 (CYP); settings: 10 μM (3,700 ng/mL)
[22] = tested on: selected cell lines from mouse, rabbit, monkey, and humans; settings: cited from earlier work
[23] = 300 mg/kg, repeat dose studies
[24] = not given; remark: listed apart in the source
[25] = 12 daily doses of 300 mg/kg
[26] = tested on: Cowpox; settings: mouse, in vivo, cited from earlier work
[27] = tested on: bacterial
[28] = tested on: mammalian cell
[29] = tested on: variola virus; set-up: species or system cynomolgus macaques; settings: cynomolgus monkey, in vivo
[30] = in vivo; settings: both, cynomolgus, monkey
[31] = tested on: vero and BSC40 cells; settings: ST-246 treatment, 50 uM; unpublished work [21]
[32] = tested on: Caco-2
[33] = methanol, ethanol and acetonitrile
[34] = single oral dose, tidal volume
[35] = in vivo; settings: cynomolgus monkey
[36] = target: CYP2E1 (Homo sapiens, UniProt P05181); assay: in vitro
CYP2E1, sequence (P05181 whole entry): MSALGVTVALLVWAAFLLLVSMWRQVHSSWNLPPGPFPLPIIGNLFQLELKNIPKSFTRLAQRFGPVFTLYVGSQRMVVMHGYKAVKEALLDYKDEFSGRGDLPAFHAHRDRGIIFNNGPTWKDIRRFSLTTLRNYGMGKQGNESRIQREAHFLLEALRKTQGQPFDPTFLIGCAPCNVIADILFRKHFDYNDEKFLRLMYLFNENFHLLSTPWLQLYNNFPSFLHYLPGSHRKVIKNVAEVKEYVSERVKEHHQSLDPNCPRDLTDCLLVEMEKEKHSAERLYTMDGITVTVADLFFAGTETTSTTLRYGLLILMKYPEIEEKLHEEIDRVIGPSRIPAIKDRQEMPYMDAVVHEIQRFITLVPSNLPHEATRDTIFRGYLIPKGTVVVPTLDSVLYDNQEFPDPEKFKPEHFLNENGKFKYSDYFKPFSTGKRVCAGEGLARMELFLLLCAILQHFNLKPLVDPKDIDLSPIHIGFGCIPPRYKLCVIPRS

[37] = tested on: Monkeypox; settings: in vivo, cited from earlier work
[38] = top dose 2000 mg/kg
[39] = tested on: CYP 2C19
[40] = in vivo; settings: Sprague-Dawley, rat, po, 30 mg/kg
[41] = tested on: unrelated viruses; settings: read-out: EC50 for inhibition of viral replication; cited from earlier work
[42] = tested on: vaccinia virus in BSC-40 cell monolayers; format: cell-based
[43] = tested on: poxvirus; settings: mouse, in vivo; cited from earlier work
[44] = target: CYP2B6 (Homo sapiens, UniProt P20813); assay: in vitro
CYP2B6, sequence (P20813 whole entry): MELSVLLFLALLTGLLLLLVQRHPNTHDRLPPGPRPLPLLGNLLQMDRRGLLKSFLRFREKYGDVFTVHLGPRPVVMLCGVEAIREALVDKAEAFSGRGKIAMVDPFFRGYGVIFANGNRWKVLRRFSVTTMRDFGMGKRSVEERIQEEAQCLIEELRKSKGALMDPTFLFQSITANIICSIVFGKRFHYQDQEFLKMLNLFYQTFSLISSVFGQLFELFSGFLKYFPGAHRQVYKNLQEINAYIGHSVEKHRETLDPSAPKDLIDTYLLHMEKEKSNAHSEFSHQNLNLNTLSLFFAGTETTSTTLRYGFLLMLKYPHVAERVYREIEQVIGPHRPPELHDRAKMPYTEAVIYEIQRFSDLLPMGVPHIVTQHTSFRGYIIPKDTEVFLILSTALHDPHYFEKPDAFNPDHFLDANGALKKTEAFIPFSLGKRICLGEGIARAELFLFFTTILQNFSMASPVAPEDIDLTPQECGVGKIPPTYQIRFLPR

[45] = tested on: Rabbitpox; settings: rabbit, in vivo, cited from earlier work
[46] = for increase in AUC values (accumulation): 28 day repeat dose study
[47] = target: CYP2C8 (Homo sapiens, UniProt P10632); assay: in vitro
CYP2C8, sequence (P10632 whole entry): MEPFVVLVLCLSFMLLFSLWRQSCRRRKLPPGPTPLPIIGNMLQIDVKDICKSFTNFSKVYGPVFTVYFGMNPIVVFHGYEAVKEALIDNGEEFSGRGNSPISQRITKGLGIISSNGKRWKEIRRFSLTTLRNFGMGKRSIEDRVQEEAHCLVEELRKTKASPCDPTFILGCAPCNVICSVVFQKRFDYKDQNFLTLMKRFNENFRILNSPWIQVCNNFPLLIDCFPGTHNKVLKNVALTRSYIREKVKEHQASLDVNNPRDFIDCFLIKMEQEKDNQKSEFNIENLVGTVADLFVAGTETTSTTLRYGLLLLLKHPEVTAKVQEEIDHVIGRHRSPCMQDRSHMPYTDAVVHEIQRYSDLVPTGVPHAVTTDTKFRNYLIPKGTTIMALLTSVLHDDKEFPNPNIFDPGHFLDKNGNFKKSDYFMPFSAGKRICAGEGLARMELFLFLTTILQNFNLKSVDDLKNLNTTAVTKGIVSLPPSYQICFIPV

[48] = mouse, in vivo; remark: listed apart in the source
[49] = tested on: cytochrome P450 isozymes
[50] = tested on: orthopoxviruses; set-up: species or system mice; settings: mouse, in vivo
[51] = tested on: ectromelia virus; settings: read-out: EC50 for inhibition of viral replication; cited from earlier work
[52] = target: CYP2C19 (Homo sapiens, UniProt P33261); assay: in vitro
CYP2C19, sequence (P33261 whole entry): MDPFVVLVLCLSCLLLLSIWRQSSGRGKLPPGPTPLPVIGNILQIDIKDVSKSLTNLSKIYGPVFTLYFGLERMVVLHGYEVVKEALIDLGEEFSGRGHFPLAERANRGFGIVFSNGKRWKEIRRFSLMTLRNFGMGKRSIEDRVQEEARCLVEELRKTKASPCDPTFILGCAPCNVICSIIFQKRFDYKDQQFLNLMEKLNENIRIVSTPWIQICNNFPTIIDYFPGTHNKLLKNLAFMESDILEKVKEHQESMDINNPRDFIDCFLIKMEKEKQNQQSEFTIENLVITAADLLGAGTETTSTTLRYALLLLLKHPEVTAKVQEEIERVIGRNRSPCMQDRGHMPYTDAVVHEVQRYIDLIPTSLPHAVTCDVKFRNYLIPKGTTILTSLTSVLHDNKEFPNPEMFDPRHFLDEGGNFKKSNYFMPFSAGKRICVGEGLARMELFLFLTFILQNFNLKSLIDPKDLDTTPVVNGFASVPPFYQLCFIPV

[53] = not given; remark: listed apart in the source
[54] = tested on: vaccinia virus; settings: CPE assay; read-out: EC50 for inhibition of viral replication; cited from earlier work
[55] = tested on: monkeypox virus; set-up: species or system prairie dogs; settings: dog, in vivo
[56] = in vivo; settings: BALB/c, mouse, 30 mg/kg
[57] = tested on: monkeypox virus; settings: cynomolgus monkey, in vivo, cited from earlier work
[58] = by 96 hours after oral administration

In the case of `O=C(NN1C(=O)C2C3C=CC(C4CC34)C2C1=O)c1ccc([N+](=O)[O-])cc1` (centres unmarked) [4-nitrophenyl], the “fold more potent than the 4-dimethylaminophenyl analog” value [1] is reported as 100 fold and the “fold more potent than the 4-dimethylaminophenyl analog” value [2] is reported as 100 fold.
In the case of `O=C(NN1C(=O)[C@@H]2[C@@H]3C=C[C@@H]([C@H]4C[C@@H]34)[C@@H]2C1=O)c1ccc(C(F)(F)F)cc1` [ST-246, Tecovirimat], the “inhibition of clinical isolates in cell culture” value [3] is given as “inhibited”, the cleavage metabolites [4] is given as “not seen” and the “radiolabel in the milk” value (nursing dams) is given as less than 1%. The “radiolabel in the placenta” value (pregnant mice) was “only very low levels”, the “Optimal oral dose mg/kg, s.i.d.” value ([5]; po) was 100 mg/kg and the Optimal dose duration [5] was >5 days (100%). For the same molecule, the “Optimal dose duration (% efficacy)” value [5] was >5 days (100%), the Time of treatment [5] was 72 h.p.i. (100%) and the “Time of treatment (% efficacy)” value [5] was 72 h.p.i. (100%). The “cleavage liberating 4-trifluoromethylbenzoic acid” value [6] was “small amounts of ST-246 were cleaved”, the “protection from lethal infection” value [7] was “protected animals from lethal infection” and the “protection from lethal infection, latest administration” value [7] was “as late as five days post-inoculation”. The NOAEL at 3 months ([8]; 1000 mg/kg) was 1000 mg/kg, the MTD ([8]; 2000 mg/kg) was 2000 mg/kg and the MTD at 28 days ([8]; 2000 mg/kg) was 2000 mg/kg. The NOAEL at 28 days ([8]; 2000 mg/kg) was 2000 mg/kg, the “extracellular virus (CEV and EEV) formation” value [9] was “inhibits” and the “interaction of p37 with Rab9 and TIP47” value [10] was “blocks”. The “protection from systemic disease” value [11] was “protects mice from systemic disease”, the “fertility, fetal resorptions, fetal abnormalities or toxicity” value [12] was “no evidence” and the maternal toxicity ([13]; Segment II study, highest dose 100 mg/kg) was “some maternal toxicity”. The “fertility, fetal resorptions, fetal abnormalities or toxicity” value ([13]; rabbit, in vivo) was “no evidence”, the “Optimal oral dose mg/kg, s.i.d.” value ([14]; po) was 100 mg/kg and the Optimal dose duration [14] was >5 days (100%]. The “Optimal dose duration (% efficacy)” value [14] was >5 days (100%], the MTD [15] was 30 mg/kg and the “inhibition of clinical isolates in cell culture” value [16] was “inhibited”. The “Optimal oral dose mg/kg, s.i.d.” value ([17]; po) was 10 mg/kg, the Time of treatment [17] was 24 h.p.i. (100%) and the “Time of treatment (% efficacy)” value [17] was 24 h.p.i. (100%). For the same molecule, the inhibition at 300 µM [18] was less than 50%, the CYP induction [19] was “induction was observed” and the “time to nearly complete elimination of radioactivity” value ([20]; after oral administration) was no more than 96 h. The “radioactivity eliminated in the urine” value [20, 58] was 24%, the “radioactivity eliminated through the feces” value [20, 58] was “approximately 72%” and the “cytochrome P450 (CYP) induction” value [21] was “no significant”. The CC50 [22] was greater than 50000 nM, the QTc [23] was “no prolongation” and the plasma protein binding [24] was “moderate to high”. For the same molecule, the “electroencephalograms and seizure thresholds” value [25] was “no evidence of altered electroencephalograms or lowered seizure thresholds”, the “Optimal oral dose mg/kg, s.i.d.” value ([26]; po) was 100 mg/kg and the Optimal dose duration [26] was >7 days (93%]. For the same molecule, the “Optimal dose duration (% efficacy)” value [26] was >7 days (93%], the Time of treatment [26] was 48 h.p.i. (93%) and the “Time of treatment (% efficacy)” value [26] was 48 h.p.i. (93%). For the same molecule, the genotoxicity [27] was “not genotoxic”, the genotoxicity [28] was “not genotoxic” and the “lesion numbers compared to placebo-treated animals” value [29] was “reduced lesion numbers”. For the same molecule, the NOAEL [30] was 2000 mg/kg, the growth of cells [31] was “not affected” and the Caco-2 membrane permeability [32] was “good”. The “solubility in organic solvents” value [33] was “very soluble”, the “no observable effect level (NOEL)” value [34] was 2000 mg/kg and the clearance ([35]; both, iv, 1 mg/kg) was roughly 18.3 mL/min/kg. For the same molecule, the bioavailability ([35]; fasted) was roughly 25%, the bioavailability ([35]; fed state) was roughly 50% and the inhibition at 300 µM [36] was less than 50%. For the same molecule, the “Optimal oral dose mg/kg, s.i.d.” value ([37]; po) was 100 mg/kg, the Time of treatment [37] was 72 h.p.i. (100%) and the “Time of treatment (% efficacy)” value [37] was 72 h.p.i. (100%). The “behavioral or other functional changes” value [38] was “did not elicit any”, the CYP induction [39] was “induction was observed” and the bioavailability ([40]; female) was 33%. For the same molecule, the bioavailability ([40]; male) was 90%, the EC50 [41] was greater than 40000 nM and the plaque formation [42] was “inhibits”. The “protection from lethal infection” value [43] was “protect”, the inhibition at 300 µM [44] was less than 50% and the “Optimal oral dose mg/kg, s.i.d.” value ([45]; po) was 40 mg/kg. The Time of treatment [45] was 48 h.p.i. (100%), the “Time of treatment (% efficacy)” value [45] was 48 h.p.i. (100%) and the “increase in AUC values (accumulation)” value ([46]; 1000 mg/kg) was “approximately 25%”. The “increase in AUC values (accumulation)” value ([46]; 2000 mg/kg) was “approximately 50%”, the terminal elimination half-life ([46]; once a day dosing) was “approximately four” and the inhibition at 300 µM [47] was less than 50%. The “chromosomal damage or bone marrow toxicity” value [48] was “did not cause”, the “metabolism by cytochrome P450 isozymes” value [49] was “not metabolized to any significant degree” and the “latest treatment initiation for full protection” value [50] was no more than 72 hours post-infection. For the same molecule, the optimal dosing period ([50]; 100 mg/kg) was “greater than seven days”, the “optimal once per day oral dose for protective efficacy” value ([50]; po) was 100 mg/kg and the EC50 [51] was 70 nM. For the same molecule, the inhibition at 300 µM [52] was less than 50%, the clinical observations ([53]; 300 mg/kg) was “ataxia was observed four hours post dose in one female NHP” and the NOEL ([53]; 3 Month study) was 300 mg/kg. For the same molecule, the NOEL ([53]; 28 Day repeat dose study) was 300 mg/kg, the “multiple-dose NOEL” value ([53]; monkey) was 300 mg/kg/day and the clinical observations ([53]; single dose 1000 mg/kg) was “This was also observed”. The clinical observations ([53]; single oral dose 2000 mg/kg, male and female) was “decreased activity and ataxia”, the EC50 [54] was 10 nM and the protection from death [55] was 100%. The bioavailability [56] was roughly 40%, the “Optimal oral dose mg/kg, s.i.d.” value ([57]; po) was 3 mg/kg and the Time of treatment [57] was 96h.p.i. (100%). For the same molecule, the “Time of treatment (% efficacy)” value [57] was 96h.p.i. (100%), the protection from death [57] was 100% and the “protection from lethal infection” value [57] was 100%.
